Experiments:
Type in all cases: cell-based
Candida krusei = assay: NCCLS broth dilution combination study in yeast (modified M27-T), Candida krusei isolate; conditions: for Antifungal activity of test compound alone: C. krusei isolate; for Interaction with terbinafine as reference compound (in words): against Candida krusei; for Interaction with fluconazole, C. krusei / Interaction with terbinafine, C. krusei: interpretation of FICI, MIC = 80% inhibition of growth, 48 hours; for Interaction with fluconazole, C. krusei: isolate poorly responsive to fluconazole; for Interaction with terbinafine, C. krusei: isolate resistant to terbinafine
Method: (§1) Combination studies are performed with Candida species, using the NCCLS standard assay (National Committee for Clinical Laboratory Standards [1995], Reference method for broth dilution antifungal susceptibility testing of yeasts (Tentative Standard M27-T, NCCL, Villanova, Pa., U.S.A.), modified as follows: the assay is effected in RPMI 1640 medium without NaHCO3 but with L-glutamine buffered with MOPS at pH 7.0 at 37°. The inoculum is 2.5×10^3 cfu/ml. Incubation times are 48 hours. The MIC is defined as the lowest drug concentration causing 80% inhibition of fungal growth.
(§2) The reference test compound (either terbinafine or fluconazole) is tested in a full concentration range in the absence or presence of the other test drug at 1, 2, 4, and 8 μg/ml.
(§3) Interaction between the drugs is analysed by calculation of the Fractional Inhibitory Concentration Index (FICI), defined as: FICI=[(MIC A in combination)/MIC A]+[MIC B in combination]/MIC B]
(§4) Interpretation of FICI in terms of interaction between the two drugs is as follows: FICI=0.5: synergy; <0.5<FICI=1: additive; 1<FICI=2: indifferent; 2<FICI: antagonism (in practical terms, synergy by this definition means that the MICs of both drugs are reduced by at least 2 dilution steps when used in combination).
(§5) The ability of the four test compounds 33-epichloro,33-desoxyascomycin, 5,6-dehydroascomycin, ascomycin and tacrolimus to influence the antifungal activity of terbinafine and fluconazole was examined in a Candida albicans isolate susceptible to both drugs, and in one isolate of Candida krusei which is resistant to terbinafine and poorly responsive to fluconazole.

Candida albicans = assay: NCCLS broth dilution combination study in yeast (modified M27-T), Candida albicans isolate; conditions: for Antifungal activity of test compound alone: C. albicans isolate; for Interaction with fluconazole, C. albicans / Interaction with terbinafine, C. albicans: interpretation of FICI, MIC = 80% inhibition of growth, 48 hours; for Interaction with terbinafine, C. albicans: 37°, pH 7.0, isolate susceptible to both drugs
Method: as §1, §2, §3, §4, §5

[1] = test system: Microsporum canis (strain NFI 5167); assay: Checkerboard combination study in dermatophyte, modified NCCLS microdilution M38-P; conditions: for MIC single drug: MIC = lowest concentration causing 80% inhibition of fungal growth; for MIC single drug / MIC combination: unit assumed; for MIC combination: terbinafine hydrochloride combined with 33-epichloro,33-desoxyascomycin, MIC = 80% inhibition
Method: Minimum Inhibitory Concentrations (MIC) against dermatophytes are determined in 96-well assay trays by a modification of the NCCLS microdilution procedure M38-P (National Committee for Clinical Laboratory Standards, Reference method for broth antifungal susceptibility testing of conidium-forming filamentous fungi; NCCLS document M38-P; NCCLS, Wayne, Pa., USA [1998]), as detailed in H. A. Norris et al., J. Am. Acad. Dermatol. 40 [1999] S9-S13). The MIC is defined as the lowest drug concentration causing 80% inhibition of fungal growth.
Combination studies are performed in a checkerboard design using the above assay to provide a matrix of all possible dose combination of the two drugs within the required concentration range. The matrix structure is provided by the microtiter trays used for the assay. The terbinafine dilution series is arranged on the y-axis (in columns) and the partner drug on the x-axis (in rows). In each row, well no. 1 contains the sterility control, well no. 2 contains terbinafine hydrochloride alone, wells no. 3 to no. 11 contain the dilution series of the partner drug 33-epichloro,33-desoxyascomycin, and well no. 12 contains the growth control. In each column, well A contains the partner drug alone and wells B to H contain the dilution series of terbinafine hydrochloride.
The nature of the interaction between the two drugs is defined quantitatively by means of the Fractional Inhibitory Concentration Index (FICI), which is calculated by the following formula: FICI=[(MIC A in combination)/MIC A]+[(MIC B in combination)/MIC B].
Interpretation of the FICI is: • ≦0.5: synergy; • >0.5 but ≦1: additive; • >1 but ≦2: indifferent; • >2: antagonism.
In practice, synergy calculated in this way is equivalent to a reduction of at least 2 dilution steps in the MIC of each drug when they are combined.

Row | Compound | Antifungal activity of test compound alone (Candida krusei) | Interaction with terbinafine as reference compound (in words) (Candida krusei) | Interaction with fluconazole, C. krusei (Candida krusei) | Interaction with terbinafine, C. krusei (Candida krusei) | Antifungal activity of test compound alone (Candida albicans) | Interaction with fluconazole, C. albicans (Candida albicans) | Interaction with terbinafine, C. albicans (Candida albicans) | FICI ([1]; combination with terbinafine hydrochloride) | Interpretation (of FICI) ([1]; combination with terbinafine hydrochloride, ≦0.5: synergy) | MIC single drug [1] | MIC combination [1] | Interaction of fluconazole with the macrolide test compounds (in words) (Candida krusei; Candida krusei, statement covers both Candida isolates) | Interaction of fluconazole with the macrolide test compounds (in words) (Candida albicans; Candida albicans, statement covers both Candida isolates)
1 | CC[C@@H]1/C=C(\C)C[C@H](C)C[C@H](OC)[C@H]2O[C@@](O)(C(=O)C(=O)N3C=CCC[C@H]3C(=O)O[C@H](/C(C)=C/[C@@H]3CC[C@@H](O)[C@H](OC)C3)[C@H](C)[C@@H](O)CC1=O)[C@H](C)C[C@@H]2OC [5,6-Dehydro-ascomycin, {1R,5Z,9S,12S-[1E-(1R,3R,4R)],13R,14S,17R,18E,21S,23S,24R,25S,27R}-17-ethyl-1,14-dihydroxy-12-[2-(4-hydroxy-3-methoxycyclohexyl)-1-methylvinyl]-23,25-dimethoxy-13,19,21,27-tetramethyl-11,28-dioxa-4-azatricyclo[22.3.1.0(4,9)]octacos-5,18-diene-2,3,10,16-tetraone] | completely inactive | strongly positive | − (−: indifferent/antagonistic) | − (−: indifferent/antagonistic) | completely inactive | − (−: indifferent/antagonistic) | + (+: additive) |  |  |  |  |  | 
2 | CC[C@@H]1/C=C(\C)C[C@H](C)C[C@H](OC)[C@H]2O[C@@](O)(C(=O)C(=O)N3CCCC[C@H]3C(=O)O[C@H](/C(C)=C/[C@@H]3CC[C@H](Cl)[C@H](OC)C3)[C@H](C)[C@@H](O)CC1=O)[C@H](C)C[C@@H]2OC [33-Epichloro,33-desoxy-ascomycin, {[1E-(1R,3R,4S)]1R,9S,12S, 13R,14S,17R,18E, 21S,23S,24R,25S,27R}-12-[2-(4-chloro-3-methoxycyclohexyl)-1-methylvinyl]-17-ethyl-1,14-dihydroxy-23,25-dimethoxy-13,19,21,27-tetramethyl-11,28,dioxa-4-azatricyclo [22.3.1.0(4,9)]octacos-18-ene-2,3,10,16-tetraone] | completely inactive | strongly positive | − (−: indifferent/antagonistic) | − (−: indifferent/antagonistic) | completely inactive | − (−: indifferent/antagonistic) | + (+: additive) | 0.28 | synergy | 64 µg/mL | 16 µg/mL |  | 
3 | CC[C@@H]1/C=C(\C)C[C@H](C)C[C@H](OC)[C@H]2O[C@@](O)(C(=O)C(=O)N3CCCC[C@H]3C(=O)O[C@H](/C(C)=C/[C@@H]3CC[C@@H](O)[C@H](OC)C3)[C@H](C)[C@@H](O)CC1=O)[C@H](C)C[C@@H]2OC [Ascomycin, ascomycin] | completely inactive | powerfully synergistic | − (−: indifferent/antagonistic) | (* ((*: synergy) | completely inactive | − (−: indifferent/antagonistic) | + (+: additive) |  |  |  |  |  | 
4 | C=CC[C@@H]1/C=C(\C)C[C@H](C)C[C@H](OC)[C@H]2O[C@@](O)(C(=O)C(=O)N3CCCC[C@H]3C(=O)O[C@H](/C(C)=C/[C@@H]3CC[C@@H](O)[C@H](OC)C3)[C@H](C)[C@@H](O)CC1=O)[C@H](C)C[C@@H]2OC [Tacrolimus, tacrolimus] | completely inactive | powerfully synergistic | − (−: indifferent/antagonistic) | (* ((*: synergy) | completely inactive | − (−: indifferent/antagonistic) | + (+: additive) |  |  |  |  |  | 
5 | OC(Cn1cncn1)(Cn1cncn1)c1ccc(F)cc1F [fluconazole] |  |  |  |  |  |  |  |  |  |  |  | no potent synergy | no potent synergy
6 | CN(C/C=C/C#CC(C)(C)C)Cc1cccc2ccccc12 [terbinafine, (E)-N-methyl-N-(1-naphthylmethyl)-6,6-dimethylhept-2-en-4-amin] |  |  |  |  |  |  |  |  |  | 0.031 µg/mL | 0.001 µg/mL |  | 

Reference: patent US6919317B2, “Pharmaceutical composition comprising squalene epoxidase inhibitor and macrolide immunomodulator” (priority 2000, dated 2005)
